Laboratory results from the kinase profiling compilation of Christmann-Franck et al. (2016).
Values joined by “and” are separate entries in the source; they are usually repeats but may differ in a detail not shown here. Equal values may be shown once.

What was measured:
Assay in all cases: radiometric filter-binding kinase assay
MINK1 (human) = MINK1 (human) (UniProt Q8N4C8); conditions: compound 100.0 µM; ATP 50 µM
PLK1 (human) = PLK1 (human) (UniProt P53350); conditions: compound 100.0 µM; ATP 5 µM
PRKCA (human) = PRKCA (human) (UniProt P17252); conditions: compound 100.0 µM; ATP 20 µM
STK16 (human) = STK16 (human) (UniProt O75716); conditions: compound 100.0 µM; ATP 50 µM
HIPK3 (human) = HIPK3 (human) (UniProt Q9H422); conditions: compound 100.0 µM; ATP 20 µM
PDPK1 (human) = PDPK1 (human) (UniProt O15530); conditions: compound 100.0 µM
MAP3K11 (human) = MAP3K11 (human) (UniProt Q16584); conditions: compound 100.0 µM; ATP 20 µM
BTK (human) = BTK (human) (UniProt Q06187); conditions: compound 100.0 µM; ATP 50 µM
EEF2K (human) = EEF2K (human) (UniProt O00418); conditions: compound 100.0 µM; ATP 5 µM
MAP2K6 (human) = MAP2K6 (human) (UniProt P52564); conditions: compound 100.0 µM; ATP 50 µM
[1] = system: RPS6KB1 (human), P23443 [T412E]; conditions: compound 100.0 µM; ATP 20 µM
MAP3K7 TAB1 (human) = MAP3K7 TAB1 (human) (UniProt Q15750+O43318); conditions: compound 100.0 µM; ATP 5 µM
MAPK15 (human) = MAPK15 (human) (UniProt Q8TD08); conditions: compound 100.0 µM; ATP 5 µM
HIPK2 (human) = HIPK2 (human) (UniProt Q9H2X6); conditions: compound 100.0 µM; ATP 5 µM
[2] = molecular target: PRKAA1 PRKAB2 PRKAG1 (human) (UniProt O43741+Q13131+P54619); conditions: compound 100.0 µM; ATP 20 µM
PRKAA1 PRKAB2 PRKAG1 (human), sequence (O43741 whole entry, looked up): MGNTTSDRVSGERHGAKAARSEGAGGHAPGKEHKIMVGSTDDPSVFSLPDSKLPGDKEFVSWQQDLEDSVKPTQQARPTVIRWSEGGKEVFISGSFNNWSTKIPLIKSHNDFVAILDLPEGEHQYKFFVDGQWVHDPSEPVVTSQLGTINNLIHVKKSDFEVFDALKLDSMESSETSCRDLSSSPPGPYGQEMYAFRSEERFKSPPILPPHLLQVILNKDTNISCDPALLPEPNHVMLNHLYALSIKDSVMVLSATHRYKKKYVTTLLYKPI
PRKAA1 PRKAB2 PRKAG1 (human), sequence (P54619 whole entry, looked up): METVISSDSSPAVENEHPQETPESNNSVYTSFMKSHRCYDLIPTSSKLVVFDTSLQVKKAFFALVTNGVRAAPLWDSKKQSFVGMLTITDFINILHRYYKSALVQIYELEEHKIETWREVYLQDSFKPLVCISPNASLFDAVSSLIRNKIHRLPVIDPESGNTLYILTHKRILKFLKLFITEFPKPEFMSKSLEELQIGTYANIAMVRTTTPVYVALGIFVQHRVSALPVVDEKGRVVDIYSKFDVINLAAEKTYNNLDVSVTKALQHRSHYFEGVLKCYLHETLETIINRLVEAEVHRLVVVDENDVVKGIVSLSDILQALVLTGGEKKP
PRKAA1 PRKAB2 PRKAG1 (human), sequence (Q13131 whole entry, looked up): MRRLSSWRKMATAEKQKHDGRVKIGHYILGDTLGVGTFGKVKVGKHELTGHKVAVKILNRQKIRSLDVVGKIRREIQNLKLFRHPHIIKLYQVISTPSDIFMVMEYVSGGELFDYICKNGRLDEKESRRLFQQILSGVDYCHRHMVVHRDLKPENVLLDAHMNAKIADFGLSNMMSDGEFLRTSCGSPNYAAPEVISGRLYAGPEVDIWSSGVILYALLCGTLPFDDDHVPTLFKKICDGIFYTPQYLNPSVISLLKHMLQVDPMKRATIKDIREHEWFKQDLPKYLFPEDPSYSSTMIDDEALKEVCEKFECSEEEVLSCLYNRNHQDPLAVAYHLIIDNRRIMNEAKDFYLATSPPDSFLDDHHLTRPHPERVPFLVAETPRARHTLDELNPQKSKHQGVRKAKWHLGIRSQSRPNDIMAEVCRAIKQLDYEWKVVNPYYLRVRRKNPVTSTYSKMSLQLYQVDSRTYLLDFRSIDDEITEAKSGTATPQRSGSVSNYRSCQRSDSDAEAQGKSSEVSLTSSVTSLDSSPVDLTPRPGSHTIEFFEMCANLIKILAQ

MAPK3 (human) = MAPK3 (human) (UniProt P27361); conditions: compound 100.0 µM; ATP 5 µM
RIPK2 (human) = RIPK2 (human) (UniProt O43353); conditions: compound 100.0 µM; ATP 20 µM
MAP3K1 (human) = MAP3K1 (human) (UniProt Q13233); conditions: compound 100.0 µM; ATP 50 µM
AURKA (human) = AURKA (human) (UniProt O14965); conditions: compound 100.0 µM; ATP 5 µM
IKBKB (human) = IKBKB (human) (UniProt O14920); conditions: compound 100.0 µM; ATP 5 µM
IKBKB (human), sequence (O14920 whole entry, looked up): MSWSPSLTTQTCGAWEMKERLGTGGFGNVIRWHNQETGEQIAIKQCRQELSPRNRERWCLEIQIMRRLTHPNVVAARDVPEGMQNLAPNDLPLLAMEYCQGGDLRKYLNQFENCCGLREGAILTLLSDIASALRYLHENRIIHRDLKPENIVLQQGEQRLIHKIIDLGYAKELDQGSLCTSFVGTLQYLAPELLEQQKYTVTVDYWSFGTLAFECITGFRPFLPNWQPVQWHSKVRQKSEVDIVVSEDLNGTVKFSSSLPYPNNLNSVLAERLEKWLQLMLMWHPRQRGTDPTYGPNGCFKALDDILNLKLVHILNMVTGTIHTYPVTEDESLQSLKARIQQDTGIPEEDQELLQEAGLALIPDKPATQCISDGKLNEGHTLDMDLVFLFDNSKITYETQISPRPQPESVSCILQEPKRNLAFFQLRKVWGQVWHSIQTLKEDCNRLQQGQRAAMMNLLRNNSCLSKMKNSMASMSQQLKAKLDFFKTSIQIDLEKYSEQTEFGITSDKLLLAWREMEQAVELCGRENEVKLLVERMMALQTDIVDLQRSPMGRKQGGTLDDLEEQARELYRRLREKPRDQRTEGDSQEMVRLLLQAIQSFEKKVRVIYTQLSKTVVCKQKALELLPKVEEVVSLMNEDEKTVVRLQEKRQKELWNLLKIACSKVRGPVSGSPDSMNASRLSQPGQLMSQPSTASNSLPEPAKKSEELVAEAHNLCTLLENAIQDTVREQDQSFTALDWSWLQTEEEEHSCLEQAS

PRKACA (human) = PRKACA (human) (UniProt P17612); conditions: compound 100.0 µM; ATP 20 µM
NEK6 (human) = NEK6 (human) (UniProt Q9HC98); conditions: compound 100.0 µM; ATP 50 µM
NEK6 (human), sequence (Q9HC98 whole entry, looked up): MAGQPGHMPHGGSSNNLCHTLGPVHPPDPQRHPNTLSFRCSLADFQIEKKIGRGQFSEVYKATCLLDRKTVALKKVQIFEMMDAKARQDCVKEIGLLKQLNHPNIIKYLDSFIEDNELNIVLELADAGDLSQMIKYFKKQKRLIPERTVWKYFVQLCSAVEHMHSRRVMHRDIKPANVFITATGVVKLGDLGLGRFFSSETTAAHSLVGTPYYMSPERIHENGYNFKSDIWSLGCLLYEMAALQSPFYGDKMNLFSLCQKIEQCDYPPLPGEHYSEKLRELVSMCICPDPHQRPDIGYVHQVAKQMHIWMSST

INSR (human) = INSR (human) (UniProt P06213); conditions: compound 100.0 µM; ATP 20 µM
MAPK12 (human) = MAPK12 (human) (UniProt P53778); conditions: compound 100.0 µM; ATP 5 µM
CLK2 (human) = CLK2 (human) (UniProt P49760); conditions: compound 100.0 µM; ATP 5 µM
MAPK10 (human) = MAPK10 (human) (UniProt P53779); conditions: compound 100.0 µM; ATP 20 µM
MELK (human) = MELK (human) (UniProt Q14680); conditions: compound 100.0 µM; ATP 50 µM
IGF1R (human) = IGF1R (human) (UniProt P08069); conditions: compound 100.0 µM; ATP 5 µM
CHEK1 (human) = CHEK1 (human) (UniProt O14757); conditions: compound 100.0 µM; ATP 20 µM
CHEK1 (human), sequence (O14757 whole entry, looked up): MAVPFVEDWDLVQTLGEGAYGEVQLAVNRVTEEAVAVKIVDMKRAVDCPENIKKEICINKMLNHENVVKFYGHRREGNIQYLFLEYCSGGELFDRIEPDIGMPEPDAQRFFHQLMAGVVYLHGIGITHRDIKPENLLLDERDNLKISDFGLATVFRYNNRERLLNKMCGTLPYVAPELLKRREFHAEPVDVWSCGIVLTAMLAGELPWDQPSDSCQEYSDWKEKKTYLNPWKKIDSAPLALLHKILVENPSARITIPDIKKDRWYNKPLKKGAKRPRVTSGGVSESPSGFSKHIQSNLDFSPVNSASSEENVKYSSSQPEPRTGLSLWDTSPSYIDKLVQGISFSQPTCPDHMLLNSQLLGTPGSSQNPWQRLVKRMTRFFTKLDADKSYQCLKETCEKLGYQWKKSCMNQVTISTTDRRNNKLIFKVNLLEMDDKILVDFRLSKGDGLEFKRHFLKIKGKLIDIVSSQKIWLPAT

[3] = molecular target: STK11 CAB39 STRADA (human) (UniProt Q9Y376+Q7RTN6+Q15831); conditions: compound 100.0 µM; ATP 20 µM
NUAK1 (human) = NUAK1 (human) (UniProt O60285); conditions: compound 100.0 µM; ATP 20 µM
GSK3B (human) = GSK3B (human) (UniProt P49841); conditions: compound 100.0 µM; ATP 5 µM
GSK3B (human), sequence (P49841 whole entry, looked up): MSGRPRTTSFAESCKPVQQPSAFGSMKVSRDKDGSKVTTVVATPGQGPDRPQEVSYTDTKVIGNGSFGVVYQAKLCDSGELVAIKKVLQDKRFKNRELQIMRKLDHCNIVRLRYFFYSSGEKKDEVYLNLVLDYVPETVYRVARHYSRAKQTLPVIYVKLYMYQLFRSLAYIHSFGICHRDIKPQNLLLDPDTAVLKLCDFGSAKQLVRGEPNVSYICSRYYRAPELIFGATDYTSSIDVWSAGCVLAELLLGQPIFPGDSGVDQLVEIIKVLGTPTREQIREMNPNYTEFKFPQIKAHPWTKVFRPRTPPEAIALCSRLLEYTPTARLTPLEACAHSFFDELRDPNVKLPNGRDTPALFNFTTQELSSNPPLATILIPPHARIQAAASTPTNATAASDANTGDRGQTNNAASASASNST

IRAK4 (human) = IRAK4 (human) (UniProt Q9NWZ3); conditions: compound 100.0 µM; ATP 20 µM
JAK2 JH1 JH2 (human) = JAK2 JH1 JH2 (human) (UniProt O60674); conditions: compound 100.0 µM; ATP 5 µM
JAK2 JH1 JH2 (human), sequence (O60674 whole entry, looked up): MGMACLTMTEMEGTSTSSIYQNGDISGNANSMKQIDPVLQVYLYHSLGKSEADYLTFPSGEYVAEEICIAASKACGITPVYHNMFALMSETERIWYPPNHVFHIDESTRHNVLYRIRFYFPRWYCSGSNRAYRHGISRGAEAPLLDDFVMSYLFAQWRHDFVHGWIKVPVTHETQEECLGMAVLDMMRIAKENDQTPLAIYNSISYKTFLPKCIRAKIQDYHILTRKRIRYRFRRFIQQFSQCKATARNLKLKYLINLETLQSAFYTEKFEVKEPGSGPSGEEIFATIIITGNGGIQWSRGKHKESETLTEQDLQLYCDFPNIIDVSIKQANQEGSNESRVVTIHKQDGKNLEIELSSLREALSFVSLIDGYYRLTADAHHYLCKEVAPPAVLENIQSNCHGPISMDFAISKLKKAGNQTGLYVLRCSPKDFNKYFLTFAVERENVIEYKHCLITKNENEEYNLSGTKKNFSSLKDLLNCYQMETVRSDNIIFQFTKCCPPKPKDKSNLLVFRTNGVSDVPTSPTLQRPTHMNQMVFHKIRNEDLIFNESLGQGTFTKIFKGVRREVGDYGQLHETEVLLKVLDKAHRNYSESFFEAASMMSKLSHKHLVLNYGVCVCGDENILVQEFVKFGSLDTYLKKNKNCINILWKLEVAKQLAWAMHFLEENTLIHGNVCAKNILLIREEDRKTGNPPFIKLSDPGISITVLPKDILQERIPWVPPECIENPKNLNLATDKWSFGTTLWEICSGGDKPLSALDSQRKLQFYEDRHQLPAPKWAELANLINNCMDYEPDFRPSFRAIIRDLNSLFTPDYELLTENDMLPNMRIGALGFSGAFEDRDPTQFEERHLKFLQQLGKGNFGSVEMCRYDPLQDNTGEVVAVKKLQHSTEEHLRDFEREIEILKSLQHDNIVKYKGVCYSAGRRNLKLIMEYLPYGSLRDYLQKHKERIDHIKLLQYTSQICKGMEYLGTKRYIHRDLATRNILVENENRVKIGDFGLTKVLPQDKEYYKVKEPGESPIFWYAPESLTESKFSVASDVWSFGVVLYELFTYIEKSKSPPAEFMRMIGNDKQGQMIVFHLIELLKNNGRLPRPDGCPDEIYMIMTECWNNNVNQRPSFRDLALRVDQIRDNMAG

EPHB4 (human) = EPHB4 (human) (UniProt P54760); conditions: compound 100.0 µM; ATP 5 µM
YES1 (human) = YES1 (human) (UniProt P07947); conditions: compound 100.0 µM; ATP 20 µM
INSRR (human) = INSRR (human) (UniProt P14616); conditions: compound 100.0 µM; ATP 5 µM
PAK6 (human) = PAK6 (human) (UniProt Q9NQU5); conditions: compound 100.0 µM; ATP 20 µM
[4] = system: SGK1 (human), O00141 [S422D]; conditions: compound 100.0 µM; ATP 20 µM

Compound: Nc1nc2cnc(-c3ccccc3)cn2n1
- inhibition (MINK1 (human)): 68%
- inhibition (PLK1 (human)): 18%
- inhibition (PRKCA (human)): 2%
- inhibition (STK16 (human)): 7%
- inhibition (HIPK3 (human)): 16%
- inhibition (PDPK1 (human); ATP 20 µM): 35%
- inhibition (PDPK1 (human); ATP 50 µM): 6%
- inhibition (MAP3K11 (human)): 89%
- inhibition (BTK (human)): 67%
- inhibition (EEF2K (human)): 36%
- inhibition (MAP2K6 (human)): 3%
- inhibition [1]: 9%
- inhibition (MAP3K7 TAB1 (human)): 86%
- inhibition (MAPK15 (human)): 74%
- inhibition (HIPK2 (human)): 57%
- inhibition [2]: 7%
- inhibition (MAPK3 (human)): 31%
- inhibition (RIPK2 (human)): 56%
- inhibition (MAP3K1 (human)): 34%
- inhibition (AURKA (human)): 52%
- inhibition (IKBKB (human)): 27%
- inhibition (PRKACA (human)): 9%
- inhibition (NEK6 (human)): 1%
- inhibition (INSR (human)): 97%
- inhibition (MAPK12 (human)): 1%
- inhibition (CLK2 (human)): 74%
- inhibition (MAPK10 (human)): 47%
- inhibition (MELK (human)): 13%
- inhibition (IGF1R (human)): 91%
- inhibition (CHEK1 (human)): 45%
- inhibition [3]: 2%
- inhibition (NUAK1 (human)): 73%
- inhibition (GSK3B (human)): 72%
- inhibition (IRAK4 (human)): 80%
- inhibition (JAK2 JH1 JH2 (human)): 76%
- inhibition (EPHB4 (human)): 56%
- inhibition (YES1 (human)): 89%
- inhibition (INSRR (human)): 71%
- inhibition (PAK6 (human)): 36%
- inhibition [4]: 34%

Compound: Cc1cccc(C)c1-c1cn2nc(N)nc2cn1
- inhibition (MINK1 (human)): 45%
- inhibition (PLK1 (human)): 8%
- inhibition (PRKCA (human)): 9%
- inhibition (STK16 (human)): 6%
- inhibition (HIPK3 (human)): 7%
- inhibition (PDPK1 (human); ATP 20 µM): 15%
- inhibition (PDPK1 (human); ATP 50 µM): 13%
- inhibition (MAP3K11 (human)): 0%
- inhibition (BTK (human)): 44%
- inhibition (EEF2K (human)): 13%
- inhibition (MAP2K6 (human)): 8%
- inhibition [1]: 8%
- inhibition (MAP3K7 TAB1 (human)): 3%
- inhibition (MAPK15 (human)): 25%
- inhibition (HIPK2 (human)): 8%
- inhibition [2]: 12%
- inhibition (MAPK3 (human)): 31%
- inhibition (RIPK2 (human)): 43%
- inhibition (MAP3K1 (human)): 17%
- inhibition (AURKA (human)): 12%
- inhibition (IKBKB (human)): 0%
- inhibition (PRKACA (human)): 0% and 19%
- inhibition (NEK6 (human)): 3%
- inhibition (INSR (human)): 24%
- inhibition (MAPK12 (human)): 0%
- inhibition (CLK2 (human)): 33%
- inhibition (MAPK10 (human)): 17%
- inhibition (MELK (human)): 8%
- inhibition (IGF1R (human)): 5%
- inhibition (CHEK1 (human)): 9%
- inhibition [3]: 0%
- inhibition (NUAK1 (human)): 28%
- inhibition (GSK3B (human)): 27%
- inhibition (IRAK4 (human)): 18%
- inhibition (JAK2 JH1 JH2 (human)): 16%
- inhibition (EPHB4 (human)): 14%
- inhibition (YES1 (human)): 42%
- inhibition (INSRR (human)): 24%
- inhibition (PAK6 (human)): 11%
- inhibition [4]: 19%

Compound: CC(=O)Nc1nc2cnc(-c3c(C)cccc3C)cn2n1
- inhibition (MINK1 (human)): 0%
- inhibition (PLK1 (human)): 0%
- inhibition (PRKCA (human)): 0%
- inhibition (STK16 (human)): 0%
- inhibition (HIPK3 (human)): 0%
- inhibition (PDPK1 (human); ATP 20 µM): 0%
- inhibition (PDPK1 (human); ATP 50 µM): 0%
- inhibition (MAP3K11 (human)): 0%
- inhibition (BTK (human)): 0%
- inhibition (EEF2K (human)): 7%
- inhibition (MAP2K6 (human)): 0%
- inhibition [1]: 0%
- inhibition (MAP3K7 TAB1 (human)): 0%
- inhibition (MAPK15 (human)): 7%
- inhibition (HIPK2 (human)): 18%
- inhibition [2]: 0%
- inhibition (MAPK3 (human)): 10%
- inhibition (RIPK2 (human)): 5%
- inhibition (MAP3K1 (human)): 0%
- inhibition (AURKA (human)): 10%
- inhibition (IKBKB (human)): 0%
- inhibition (PRKACA (human)): 0% and 1%
- inhibition (NEK6 (human)): 0%
- inhibition (INSR (human)): 0%
- inhibition (MAPK12 (human)): 0%
- inhibition (CLK2 (human)): 28%
- inhibition (MAPK10 (human)): 0%
- inhibition (MELK (human)): 0%
- inhibition (IGF1R (human)): 0%
- inhibition (CHEK1 (human)): 0%
- inhibition [3]: 0%
- inhibition (NUAK1 (human)): 0%
- inhibition (GSK3B (human)): 8%
- inhibition (IRAK4 (human)): 0%
- inhibition (JAK2 JH1 JH2 (human)): 9%
- inhibition (EPHB4 (human)): 27%
- inhibition (YES1 (human)): 17%
- inhibition (INSRR (human)): 0%
- inhibition (PAK6 (human)): 0%
- inhibition [4]: 0%

Compound: COc1ccc(-c2cc3c(=O)[nH]cnc3s2)cc1OC
- inhibition (MINK1 (human)): 60%
- inhibition (PLK1 (human)): 0%
- inhibition (PRKCA (human)): 18%
- inhibition (STK16 (human)): 12%
- inhibition (HIPK3 (human)): 0%
- inhibition (PDPK1 (human); ATP 20 µM): 41%
- inhibition (PDPK1 (human); ATP 50 µM): 25%
- inhibition (MAP3K11 (human)): 8%
- inhibition (BTK (human)): 29%
- inhibition (EEF2K (human)): 2%
- inhibition (MAP2K6 (human)): 18%
- inhibition [1]: 30%
- inhibition (MAP3K7 TAB1 (human)): 45%
- inhibition (MAPK15 (human)): 18%
- inhibition (HIPK2 (human)): 58%
- inhibition [2]: 0%
- inhibition (MAPK3 (human)): 26%
- inhibition (RIPK2 (human)): 65%
- inhibition (MAP3K1 (human)): 0%
- inhibition (AURKA (human)): 1%
- inhibition (IKBKB (human)): 29%
- inhibition (PRKACA (human)): 34% and 38%
- inhibition (NEK6 (human)): 60%
- inhibition (INSR (human)): 0%
- inhibition (MAPK12 (human)): 0%
- inhibition (CLK2 (human)): 50%
- inhibition (MAPK10 (human)): 3%
- inhibition (MELK (human)): 22%
- inhibition (IGF1R (human)): 0%
- inhibition (CHEK1 (human)): 0%
- inhibition [3]: 0%
- inhibition (NUAK1 (human)): 0%
- inhibition (GSK3B (human)): 62%
- inhibition (IRAK4 (human)): 9%
- inhibition (JAK2 JH1 JH2 (human)): 60%
- inhibition (EPHB4 (human)): 0%
- inhibition (YES1 (human)): 0%
- inhibition (INSRR (human)): 0%
- inhibition (PAK6 (human)): 0%
- inhibition [4]: 63%

Compound: O=c1cc(-c2ccccc2F)nc2[nH]ccn12
- inhibition (MINK1 (human)): 28%
- inhibition (PLK1 (human)): 8%
- inhibition (PRKCA (human)): 2%
- inhibition (STK16 (human)): 15%
- inhibition (HIPK3 (human)): 0%
- inhibition (PDPK1 (human); ATP 20 µM): 2%
- inhibition (PDPK1 (human); ATP 50 µM): 15%
- inhibition (MAP3K11 (human)): 7%
- inhibition (BTK (human)): 49%
- inhibition (EEF2K (human)): 7%
- inhibition (MAP2K6 (human)): 0%
- inhibition [1]: 8%
- inhibition (MAP3K7 TAB1 (human)): 37%
- inhibition (MAPK15 (human)): 18%
- inhibition (HIPK2 (human)): 61%
- inhibition [2]: 0%
- inhibition (MAPK3 (human)): 3%
- inhibition (RIPK2 (human)): 57%
- inhibition (MAP3K1 (human)): 53%
- inhibition (AURKA (human)): 17%
- inhibition (IKBKB (human)): 15%
- inhibition (PRKACA (human)): 0% and 11%
- inhibition (NEK6 (human)): 7%
- inhibition (INSR (human)): 6%
- inhibition (MAPK12 (human)): 6%
- inhibition (CLK2 (human)): 48%
- inhibition (MAPK10 (human)): 0%
- inhibition (MELK (human)): 1%
- inhibition (IGF1R (human)): 28%
- inhibition (CHEK1 (human)): 4%
- inhibition [3]: 6%
- inhibition (NUAK1 (human)): 6%
- inhibition (GSK3B (human)): 44%
- inhibition (IRAK4 (human)): 40%
- inhibition (JAK2 JH1 JH2 (human)): 25%
- inhibition (EPHB4 (human)): 6%
- inhibition (YES1 (human)): 33%
- inhibition (INSRR (human)): 6%
- inhibition (PAK6 (human)): 3%
- inhibition [4]: 18%
